Assay results as given in ChEMBL document CHEMBL5715954, “Silencing c-Myc translation as a therapeutic strategy through targeting PI3Kδ and CK1ε in hematological malignancies” (Blood, 2017).

How the values were obtained:
Design in all cases: scale not given: the % may be the effect or the level left
[1] = target: T1, Aurora kinase A (Homo sapiens) (UniProt O14965); test: Inhibition of human Aurora A assessed as enzyme activity at 1 uM using H-LRRASLG as substrate preincubated for 20 mins followed by [gamma-33P]-ATP addition and measured after 120 mins by radiometric Hot-SpotSM Kinase assay relative to control
T1 sequence (whole entry): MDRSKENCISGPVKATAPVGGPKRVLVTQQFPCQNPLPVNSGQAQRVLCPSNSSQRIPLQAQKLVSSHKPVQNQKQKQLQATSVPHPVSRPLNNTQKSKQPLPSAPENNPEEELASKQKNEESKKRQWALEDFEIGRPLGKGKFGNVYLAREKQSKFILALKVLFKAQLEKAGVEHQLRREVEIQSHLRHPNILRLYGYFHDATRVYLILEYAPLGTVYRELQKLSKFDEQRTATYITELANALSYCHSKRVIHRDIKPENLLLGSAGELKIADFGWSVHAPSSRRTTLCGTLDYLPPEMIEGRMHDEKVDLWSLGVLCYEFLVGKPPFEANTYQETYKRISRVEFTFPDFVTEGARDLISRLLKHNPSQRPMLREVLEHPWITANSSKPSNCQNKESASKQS

[2] = target: T2, Serine/threonine-protein kinase BRSK2 (Homo sapiens) (UniProt Q8IWQ3); test: Inhibition of human BRSK2 assessed as enzyme activity at 1 uM using KKLNRTLSFAEPG as substrate preincubated for 20 mins followed by [gamma-33P]-ATP addition and measured after 120 mins by radiometric Hot-SpotSM Kinase assay relative to control
T2 sequence (whole entry): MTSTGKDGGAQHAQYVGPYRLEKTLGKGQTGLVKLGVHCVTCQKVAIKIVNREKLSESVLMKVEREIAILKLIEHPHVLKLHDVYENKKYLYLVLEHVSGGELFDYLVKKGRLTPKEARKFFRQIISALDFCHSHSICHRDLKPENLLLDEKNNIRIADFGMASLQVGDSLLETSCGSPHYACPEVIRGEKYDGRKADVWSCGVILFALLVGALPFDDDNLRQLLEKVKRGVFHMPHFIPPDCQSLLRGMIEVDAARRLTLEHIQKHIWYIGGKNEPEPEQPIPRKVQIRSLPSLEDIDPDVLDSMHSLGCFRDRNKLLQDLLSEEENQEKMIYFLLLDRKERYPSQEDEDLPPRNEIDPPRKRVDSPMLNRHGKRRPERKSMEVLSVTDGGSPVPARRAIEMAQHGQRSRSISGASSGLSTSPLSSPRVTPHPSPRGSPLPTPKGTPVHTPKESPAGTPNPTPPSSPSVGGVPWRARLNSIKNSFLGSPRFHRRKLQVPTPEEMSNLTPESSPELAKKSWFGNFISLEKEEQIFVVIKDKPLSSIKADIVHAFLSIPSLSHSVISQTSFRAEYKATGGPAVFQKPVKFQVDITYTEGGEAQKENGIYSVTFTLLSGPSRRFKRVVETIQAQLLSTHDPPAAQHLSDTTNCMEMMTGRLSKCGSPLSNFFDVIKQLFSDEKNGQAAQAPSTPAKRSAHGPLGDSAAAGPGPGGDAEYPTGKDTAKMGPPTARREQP

[3] = target: T3, Tyrosine-protein kinase ITK/TSK (Homo sapiens) (UniProt Q08881); test: Inhibition of human ITK assessed as enzyme activity at 1 uM using myelin basic protein as substrate preincubated for 20 mins followed by [gamma-33P]-ATP addition and measured after 120 mins by radiometric Hot-SpotSM Kinase assay relative to control
T3 sequence (whole entry): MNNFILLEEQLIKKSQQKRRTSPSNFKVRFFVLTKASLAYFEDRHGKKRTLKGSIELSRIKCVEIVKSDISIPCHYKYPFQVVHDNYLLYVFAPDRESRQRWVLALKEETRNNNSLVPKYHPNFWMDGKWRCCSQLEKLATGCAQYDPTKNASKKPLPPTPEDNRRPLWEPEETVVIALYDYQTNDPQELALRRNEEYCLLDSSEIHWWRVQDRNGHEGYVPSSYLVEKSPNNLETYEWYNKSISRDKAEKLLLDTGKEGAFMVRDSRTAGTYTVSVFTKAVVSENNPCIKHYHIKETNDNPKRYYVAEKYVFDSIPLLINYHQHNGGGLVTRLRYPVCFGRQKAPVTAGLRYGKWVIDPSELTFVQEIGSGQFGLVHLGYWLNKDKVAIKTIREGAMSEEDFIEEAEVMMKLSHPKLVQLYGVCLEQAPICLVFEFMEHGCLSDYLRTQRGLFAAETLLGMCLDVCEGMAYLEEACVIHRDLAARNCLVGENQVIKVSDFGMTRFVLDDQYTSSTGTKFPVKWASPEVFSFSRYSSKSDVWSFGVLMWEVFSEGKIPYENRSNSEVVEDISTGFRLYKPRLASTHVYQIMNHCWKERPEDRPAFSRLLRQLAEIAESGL

[4] = target: Serine/threonine-protein kinase 16 (Homo sapiens) (UniProt O75716); test: Inhibition of human STK16 assessed as enzyme activity at 1 uM using myelin basic protein as substrate preincubated for 20 mins followed by [gamma-33P]-ATP addition and measured after 120 mins by radiometric Hot-SpotSM Kinase assay relative to control
[5] = target: T4, Tyrosine-protein kinase TXK (Homo sapiens) (UniProt P42681); test: Inhibition of human TXK assessed as enzyme activity at 1 uM using EAIYAAPFAKKK as substrate preincubated for 20 mins followed by [gamma-33P]-ATP addition and measured after 120 mins by radiometric Hot-SpotSM Kinase assay relative to control
T4 sequence (whole entry): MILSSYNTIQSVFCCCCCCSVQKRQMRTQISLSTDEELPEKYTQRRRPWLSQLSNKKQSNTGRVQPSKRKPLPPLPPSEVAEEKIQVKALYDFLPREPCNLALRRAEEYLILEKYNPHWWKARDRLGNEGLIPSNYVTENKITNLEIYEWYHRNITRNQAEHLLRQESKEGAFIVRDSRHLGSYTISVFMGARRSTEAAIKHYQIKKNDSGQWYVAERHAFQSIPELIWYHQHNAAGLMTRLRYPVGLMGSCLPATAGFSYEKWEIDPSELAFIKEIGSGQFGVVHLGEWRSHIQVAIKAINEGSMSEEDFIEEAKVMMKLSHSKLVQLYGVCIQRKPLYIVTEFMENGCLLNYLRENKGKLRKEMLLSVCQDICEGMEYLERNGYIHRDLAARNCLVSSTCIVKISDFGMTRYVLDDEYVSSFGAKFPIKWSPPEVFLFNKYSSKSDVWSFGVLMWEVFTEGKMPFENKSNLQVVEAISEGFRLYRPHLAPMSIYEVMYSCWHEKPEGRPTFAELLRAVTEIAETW

[6] = target: Serine/threonine-protein kinase WNK1 (Homo sapiens) (UniProt Q9H4A3); test: Inhibition of human WNK1 assessed as enzyme activity at 1 uM using myelin basic protein as substrate preincubated for 20 mins followed by [gamma-33P]-ATP addition and measured after 120 mins by radiometric Hot-SpotSM Kinase assay relative to control
Chain of Serine/threonine-protein kinase WNK1 (Homo sapiens) (Q9H4A3 whole entry, looked up): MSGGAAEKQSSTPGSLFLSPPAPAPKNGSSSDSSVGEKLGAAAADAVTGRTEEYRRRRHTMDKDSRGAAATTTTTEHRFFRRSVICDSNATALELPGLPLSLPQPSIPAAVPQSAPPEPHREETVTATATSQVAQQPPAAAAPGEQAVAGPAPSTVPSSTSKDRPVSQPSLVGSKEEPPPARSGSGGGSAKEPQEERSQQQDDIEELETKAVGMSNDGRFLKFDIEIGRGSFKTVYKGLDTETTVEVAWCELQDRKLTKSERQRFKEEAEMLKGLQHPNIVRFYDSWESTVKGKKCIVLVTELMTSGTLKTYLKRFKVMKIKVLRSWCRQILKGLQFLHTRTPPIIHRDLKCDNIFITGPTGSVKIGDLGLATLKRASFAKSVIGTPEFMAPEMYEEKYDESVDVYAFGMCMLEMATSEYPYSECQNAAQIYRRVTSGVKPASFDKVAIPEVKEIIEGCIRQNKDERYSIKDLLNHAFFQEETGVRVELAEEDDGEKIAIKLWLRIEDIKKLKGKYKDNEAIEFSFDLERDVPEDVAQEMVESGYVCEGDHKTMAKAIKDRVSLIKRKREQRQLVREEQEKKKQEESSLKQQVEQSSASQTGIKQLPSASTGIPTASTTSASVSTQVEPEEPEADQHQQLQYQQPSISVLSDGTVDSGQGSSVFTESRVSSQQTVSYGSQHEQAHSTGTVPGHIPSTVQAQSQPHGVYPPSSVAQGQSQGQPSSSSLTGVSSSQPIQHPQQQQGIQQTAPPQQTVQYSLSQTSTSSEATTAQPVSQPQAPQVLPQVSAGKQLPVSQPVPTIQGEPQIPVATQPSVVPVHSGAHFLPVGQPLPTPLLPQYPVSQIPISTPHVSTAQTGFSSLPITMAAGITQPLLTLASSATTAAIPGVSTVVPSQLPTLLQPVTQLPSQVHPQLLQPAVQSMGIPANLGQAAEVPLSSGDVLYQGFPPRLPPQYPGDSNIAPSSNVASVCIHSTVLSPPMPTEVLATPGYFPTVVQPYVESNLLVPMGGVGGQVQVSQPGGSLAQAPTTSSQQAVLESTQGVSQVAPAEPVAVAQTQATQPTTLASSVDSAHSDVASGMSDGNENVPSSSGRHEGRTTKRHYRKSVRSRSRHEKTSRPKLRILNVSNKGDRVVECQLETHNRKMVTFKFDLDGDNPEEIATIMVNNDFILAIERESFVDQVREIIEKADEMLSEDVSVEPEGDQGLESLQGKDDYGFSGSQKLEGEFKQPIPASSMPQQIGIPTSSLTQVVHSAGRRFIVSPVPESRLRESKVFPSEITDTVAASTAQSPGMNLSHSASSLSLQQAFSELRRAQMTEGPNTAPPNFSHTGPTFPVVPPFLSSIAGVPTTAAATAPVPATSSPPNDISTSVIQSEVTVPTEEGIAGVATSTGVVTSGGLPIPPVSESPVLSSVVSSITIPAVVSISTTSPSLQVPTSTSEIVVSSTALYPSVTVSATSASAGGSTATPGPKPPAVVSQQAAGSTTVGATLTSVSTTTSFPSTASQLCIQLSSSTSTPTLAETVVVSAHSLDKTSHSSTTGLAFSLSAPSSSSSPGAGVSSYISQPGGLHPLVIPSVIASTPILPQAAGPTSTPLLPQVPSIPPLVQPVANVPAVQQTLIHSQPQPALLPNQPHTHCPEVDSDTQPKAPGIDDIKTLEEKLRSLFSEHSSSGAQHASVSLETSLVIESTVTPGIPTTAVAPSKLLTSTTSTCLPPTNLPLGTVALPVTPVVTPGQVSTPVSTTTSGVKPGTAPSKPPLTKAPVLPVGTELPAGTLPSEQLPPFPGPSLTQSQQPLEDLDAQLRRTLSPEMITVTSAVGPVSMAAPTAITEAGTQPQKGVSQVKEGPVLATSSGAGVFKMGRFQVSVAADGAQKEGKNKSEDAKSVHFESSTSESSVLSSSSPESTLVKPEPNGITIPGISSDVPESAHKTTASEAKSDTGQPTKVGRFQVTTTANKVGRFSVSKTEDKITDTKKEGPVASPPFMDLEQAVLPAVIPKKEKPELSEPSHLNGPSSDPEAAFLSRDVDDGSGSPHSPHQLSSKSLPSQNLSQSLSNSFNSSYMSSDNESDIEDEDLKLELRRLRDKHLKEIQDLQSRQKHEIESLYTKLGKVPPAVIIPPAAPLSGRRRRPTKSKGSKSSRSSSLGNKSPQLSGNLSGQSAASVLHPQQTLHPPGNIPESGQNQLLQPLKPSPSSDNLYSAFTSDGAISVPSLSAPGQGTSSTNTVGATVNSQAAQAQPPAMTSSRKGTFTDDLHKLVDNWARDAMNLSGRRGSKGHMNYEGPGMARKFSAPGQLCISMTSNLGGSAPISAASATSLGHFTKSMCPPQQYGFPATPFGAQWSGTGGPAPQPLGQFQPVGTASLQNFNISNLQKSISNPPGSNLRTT

Chain of Serine/threonine-protein kinase 16 (Homo sapiens) (O75716 whole entry): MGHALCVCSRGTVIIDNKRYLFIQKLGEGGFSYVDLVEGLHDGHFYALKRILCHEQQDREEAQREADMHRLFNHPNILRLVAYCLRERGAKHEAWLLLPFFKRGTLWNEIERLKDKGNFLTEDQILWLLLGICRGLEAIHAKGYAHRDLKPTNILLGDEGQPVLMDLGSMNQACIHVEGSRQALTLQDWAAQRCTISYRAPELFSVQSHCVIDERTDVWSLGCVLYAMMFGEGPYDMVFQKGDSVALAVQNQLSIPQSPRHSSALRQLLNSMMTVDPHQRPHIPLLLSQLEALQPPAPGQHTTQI

Structure (SMILES) | Activity [1] [%] | Activity [2] [%] | Activity [3] [%] | Activity [4] [%] | Activity [5] [%] | Activity [6] [%]
C[C@H](Nc1ncnc2nc[nH]c12)c1cc2cccc(Cl)c2c(=O)n1-c1ccccc1 | 96.8 | 95.1 | 94.5 | 106 | 101 | 79.4
CC[C@H](Nc1ncnc2[nH]cnc12)c1nc2cccc(F)c2c(=O)n1-c1ccccc1 | 104 | 98.9 | 102 | 105 | 109 | 90.7
CC(C)Oc1ccc(-c2nn([C@@H](C)c3oc4ccc(F)cc4c(=O)c3-c3cccc(F)c3)c3ncnc(N)c23)cc1F [UMBRALISIB] | 99.5 | 99.1 | 97.3 | 108 | 111 | 100
